Assays:
bedstraw = test: Test B pre/postemergence bedstraw; format: in vivo, Galium aparine
In short: (§1)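 Test chemicals in a non-phytotoxic solvent mixture with surfactant were sprayed preemergence onto planted seeds and postemergence onto plants 2 to 18 cm tall (1- to 4-leaf stage). After twelve to sixteen days in a greenhouse, injury was visually rated against untreated controls from 0 (no effect) to 10 (complete control).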

blackgrass = test: Test B pre/postemergence blackgrass; format: in vivo, Alopecurus myosuroides
In short: as §1

surinam grass = test: Test B pre/postemergence surinam grass; format: in vivo, Brachiaria decumbens
In short: as §1

corn = test: Test B pre/postemergence corn; format: in vivo, Zea mays
In short: as §1

crabgrass = test: Test B pre/postemergence crabgrass; format: in vivo, Digitaria sanguinalis
In short: as §1

pigweed = test: Test B pre/postemergence pigweed; format: in vivo, Amaranthus retroflexus
In short: as §1

rape = test: Test B pre/postemergence rape; format: in vivo, Brassica napus
In short: as §1

soybean = test: Test B pre/postemergence soybean; format: in vivo, Glycine max
In short: as §1

sugar beet = test: Test B pre/postemergence sugar beet; format: in vivo, Beta vulgaris
In short: as §1

velvetleaf = test: Test B pre/postemergence velvetleaf; format: in vivo, Abutilon theophrasti
In short: as §1

wheat = test: Test B pre/postemergence wheat; format: in vivo, Triticum aestivum
In short: as §1

wild oat = test: Test B pre/postemergence wild oat; format: in vivo, Avena fatua
In short: as §1

purple nutsedge = test: Test B pre/postemergence purple nutsedge; format: in vivo, Cyperus rotundus
In short: as §1

[1] = Postemergence, Rate 62 g/ha, scale 0 to 10, 0 is no effect, 10 is complete control
[2] = Postemergence, Rate 250 g/ha, scale 0 to 10, 0 no effect, 10 complete control
[3] = Preemergence, Rate 62 g/ha, scale 0 to 10 (0 no effect, 10 complete control)
[4] = Preemergence, Rate 125 g/ha, scale 0 to 10 (0 no effect, 10 complete control)
[5] = Preemergence, Rate 250 g/ha, scale of 0 to 10 where 0 is no effect and 10 is complete control
[6] = Preemergence, Rate 500 g/ha, scale 0 (no effect) to 10 (complete control)
[7] = Rate 125 g/ha, Postemergence, scale 0 to 10, 0 no effect, 10 complete control
[8] = Rate 500 g/ha, Postemergence, scale 0 to 10, 0 no effect, 10 complete control
[9] = Postemergence, Rate 125 g/ha, scale of 0 to 10 where 0 is no effect and 10 is complete control

With `Cc1ccccc1Cn1c(=O)on(C(=O)N(c2ccc(F)cc2)C(C)C)c1=O` [Compound 88] the “Bedstraw plant response rating” value (bedstraw; [1]) was 3, the “Bedstraw plant response rating” value (bedstraw; [2]) was 9 and the “Bedstraw plant response rating” value (bedstraw; [3]) was 0. The “Plant response rating, Bedstraw” value (bedstraw; [4]) was 0, the “Plant response rating, Bedstraw” value (bedstraw; [5]) was 0 and the “Bedstraw plant response rating” value (bedstraw; [6]) was 2. For the same compound, the “Bedstraw plant response rating” value (bedstraw; [7]) was 8, the “Bedstraw plant response rating” value (bedstraw; [8]) was 9 and the “Blackgrass plant response rating” value (blackgrass; [1]) was 2. The “Blackgrass plant response rating” value (blackgrass; [9]) was 5, the “Blackgrass plant response rating” value (blackgrass; [2]) was 6 and the “Blackgrass plant response rating” value (blackgrass; [3]) was 1. For the same compound, the “Plant response rating, Blackgrass” value (blackgrass; [4]) was 4, the “Plant response rating, Blackgrass” value (blackgrass; [5]) was 4 and the “Blackgrass plant response rating” value (blackgrass; [6]) was 6. For the same compound, the “Blackgrass plant response rating” value (blackgrass; [8]) was 6, the “B. signalgrass plant response rating” value (surinam grass; [1]) was 0 and the “B. signalgrass plant response rating” value (surinam grass; [2]) was 0. For the same compound, the “B. signalgrass plant response rating” value (surinam grass; [3]) was 0, the “Plant response rating, B. signalgrass” value (surinam grass; [4]) was 2 and the “Plant response rating, B. signalgrass” value (surinam grass; [5]) was 2. The “B. signalgrass plant response rating” value (surinam grass; [6]) was 5, the “B. signalgrass plant response rating” value (surinam grass; [7]) was 2 and the “B. signalgrass plant response rating” value (surinam grass; Rate 500 g/ha, Postemergence, scale of 0 to 10 where 0 is no effect and 10 is complete control) was 2. The “Corn plant response rating” value (corn; [1]) was 0, the “Corn plant response rating” value (corn; [9]) was 0 and the “Corn plant response rating” value (corn; [2]) was 0. The “Corn plant response rating” value (corn; [3]) was 0, the “Plant response rating, Corn” value (corn; [4]) was 0 and the “Plant response rating, Corn” value (corn; [5]) was 0. The “Corn plant response rating” value (corn; [6]) was 0, the “Corn plant response rating” value (corn; [8]) was 0 and the “Crabgrass plant response rating” value (crabgrass; [1]) was 0. For the same compound, the “Crabgrass plant response rating” value (crabgrass; [9]) was 0, the “Crabgrass plant response rating” value (crabgrass; [2]) was 9 and the “Crabgrass plant response rating” value (crabgrass; [3]) was 5. For the same compound, the “Plant response rating, Crabgrass” value (crabgrass; [4]) was 7, the “Plant response rating, Crabgrass” value (crabgrass; [5]) was 10 and the “Crabgrass plant response rating” value (crabgrass; [6]) was 10. For the same compound, the “Crabgrass plant response rating” value (crabgrass; [8]) was 9, the “Redroot pigweed plant response rating” value (pigweed; [1]) was 3 and the “Redroot pigweed plant response rating” value (pigweed; [9]) was 3. For the same compound, the “Redroot pigweed plant response rating” value (pigweed; [2]) was 3, the “Redroot pigweed plant response rating” value (pigweed; [3]) was 9 and the “Plant response rating, Redroot pigweed” value (pigweed; [4]) was 10. For the same compound, the “Plant response rating, Redroot pigweed” value (pigweed; [5]) was 10, the “Redroot pigweed plant response rating” value (pigweed; [6]) was 10 and the “Redroot pigweed plant response rating” value (pigweed; [8]) was 5. The “Rape plant response rating” value (rape; [1]) was 0, the “Rape plant response rating” value (rape; [9]) was 0 and the “Rape plant response rating” value (rape; [2]) was 0. The “Rape plant response rating” value (rape; [3]) was 0, the “Plant response rating, Rape” value (rape; [4]) was 0 and the “Plant response rating, Rape” value (rape; [5]) was 0. For the same compound, the “Rape plant response rating” value (rape; [6]) was 0, the “Rape plant response rating” value (rape; [8]) was 3 and the “Soybean plant response rating” value (soybean; [1]) was 1. For the same compound, the “Soybean plant response rating” value (soybean; [9]) was 1, the “Soybean plant response rating” value (soybean; [2]) was 1 and the “Soybean plant response rating” value (soybean; [3]) was 0. For the same compound, the “Plant response rating, Soybean” value (soybean; [4]) was 0, the “Plant response rating, Soybean” value (soybean; [5]) was 0 and the “Soybean plant response rating” value (soybean; [6]) was 2. The “Soybean plant response rating” value (soybean; [8]) was 1, the “Sugarbeets plant response rating” value (sugar beet; [1]) was 3 and the “Sugarbeets plant response rating” value (sugar beet; [9]) was 5. The “Sugarbeets plant response rating” value (sugar beet; [2]) was 7, the “Sugarbeets plant response rating” value (sugar beet; [3]) was 2 and the “Plant response rating, Sugarbeets” value (sugar beet; [4]) was 3. For the same compound, the “Plant response rating, Sugarbeets” value (sugar beet; [5]) was 6, the “Sugarbeets plant response rating” value (sugar beet; [6]) was 8 and the “Sugarbeets plant response rating” value (sugar beet; [8]) was 7. For the same compound, the “Velvetleaf plant response rating” value (velvetleaf; [1]) was 0, the “Velvetleaf plant response rating” value (velvetleaf; [9]) was 0 and the “Velvetleaf plant response rating” value (velvetleaf; [2]) was 0. For the same compound, the “Velvetleaf plant response rating” value (velvetleaf; [3]) was 0, the “Plant response rating, Velvetleaf” value (velvetleaf; [4]) was 0 and the “Plant response rating, Velvetleaf” value (velvetleaf; [5]) was 0. For the same compound, the “Velvetleaf plant response rating” value (velvetleaf; [6]) was 2, the “Velvetleaf plant response rating” value (velvetleaf; [8]) was 0 and the “Wheat plant response rating” value (wheat; [1]) was 0. For the same compound, the “Wheat plant response rating” value (wheat; [9]) was 0, the “Wheat plant response rating” value (wheat; [2]) was 0 and the “Wheat plant response rating” value (wheat; [3]) was 0. For the same compound, the “Plant response rating, Wheat” value (wheat; [4]) was 0, the “Plant response rating, Wheat” value (wheat; [5]) was 0 and the “Wheat plant response rating” value (wheat; [6]) was 0. The “Wheat plant response rating” value (wheat; [8]) was 0, the “Wild oats plant response rating” value (wild oat; [1]) was 0 and the “Wild oats plant response rating” value (wild oat; [9]) was 0. The “Wild oats plant response rating” value (wild oat; [2]) was 0, the “Wild oats plant response rating” value (wild oat; [3]) was 0 and the “Plant response rating, Wild oats” value (wild oat; [4]) was 2. The “Plant response rating, Wild oats” value (wild oat; [5]) was 2, the “Wild oats plant response rating” value (wild oat; [6]) was 5 and the “Wild oats plant response rating” value (wild oat; [8]) was 0. For the same compound, the “Nutsedge plant response rating” value (purple nutsedge; [1]) was 0, the “Nutsedge plant response rating” value (purple nutsedge; [9]) was 0 and the “Nutsedge plant response rating” value (purple nutsedge; [2]) was 0. The “Nutsedge plant response rating” value (purple nutsedge; [3]) was 0, the “Plant response rating, Nutsedge” value (purple nutsedge; [4]) was 0 and the “Plant response rating, Nutsedge” value (purple nutsedge; [5]) was 0. The “Nutsedge plant response rating” value (purple nutsedge; [6]) was 0 and the “Nutsedge plant response rating” value (purple nutsedge; [8]) was 0.

Reference: US6737383B1, “Herbicidal oxadiazolidines” (priority 1999, dated 2004)
